According to paper PMC9764404 (ACS infectious diseases, 2022):

Columns and labels:
Assay type in all cases: binding
[1] = target: T1, LdtAb (Acinetobacter baumannii, UniProt A0A222A2P4); assay: LC-MS of acyl-enzyme formation; settings: covalent, 2 μM enzyme, 200 μM antibiotic, PBS pH 7.4, 22 °C
[2] = target: T1, LdtAb; assay: LC-MS of acyl-enzyme formation; settings: covalent; 2 μM enzyme, 200 μM antibiotic; PBS pH 7.4; 22 °C
[3] = target: T1, LdtAb; assay: acylation by reporter substrate; settings: covalent; very slow acylation

Row | Structure (SMILES) | % acyl-enzyme after 18 h [1] | apparent acylation rate constant k2 [2] | acylation by reporter substrate (data not shown) [3]
1 | C[C@@H](O)[C@H]1C(=O)N2C(C(=O)O)=C(S[C@@H]3CN[C@H](CNS(N)(=O)=O)C3)[C@H](C)[C@H]12 [doripenem] | 21% |  | 
2 | C[C@@H](O)[C@H]1C(=O)N2C(C(=O)O)=C(S[C@@H]3CN[C@H](C(=O)Nc4cccc(C(=O)O)c4)C3)[C@H](C)[C@H]12 [ertapenem] | 97% | 0.22 ± 0.01 h⁻¹ | 
3 | C[C@@H](O)[C@H]1C(=O)N2C(C(=O)O)=C(SCCN=CN)C[C@H]12 [imipenem] | 95% |  | 
4 | C[C@@H](O)[C@H]1C(=O)N2C(C(=O)O)=C(S[C@@H]3CN[C@H](C(=O)N(C)C)C3)[C@H](C)[C@H]12 [meropenem] | 48% |  | 
5 | O=C(Cc1cccs1)N[C@@H]1C(=O)N2C(C(=O)O)=C(/C=C/c3ccc([N+](=O)[O-])cc3[N+](=O)[O-])CS[C@H]12 [nitrocefin] |  |  | acylation of LdtAb by nitrocefin took more than six hours to reach completion
